Entries after “also recorded” stand apart in the source; their conditions may differ.
Assays:
[1] = MTD by dose escalation in mice; details: mouse, in vivo
Method: To further validate the feasibility of our proposed strategy as a therapeutic principle, we used mixing experiments in which tet2^MT/tet2^WT were co-cultured at fixed ratios to mimic evolving tet2MT clone and the differences in isoform fractions served as read out. In long-term culture of normal marrow from B6Cd45.1 Pep Boy vs. B6CD45.2 mice of tet2^+/− and tet2^−/− genetic background. Marrow cell from 3 mice/group were cultured in 1:2 ratio of tet2^MT/tet2^WT with/without TETi. Over the period of culture TETi effectively eliminated otherwise dominating tet2^+/− cells (FIG. 4). As expected, tet2^MT grew at faster rate in the controls as reflected in the increased ratio >1:1 of tet2^MT/tet2^WT, while TETi treatment selectively eliminated the tet2^MT cells as determined using CD45.1/CD45.2 surface markers on tet2^WT and tet2^MT bone marrow, respectively (FIGS. 4A&B). […] In vivo efficacy of TETi. […] First we determined MTD utilizing a dose escalation in a group of 3 mice each. […] The MTD was determined at 168 mg/kg. […] Once mice were fully recovered as determined by their weight, the ratio of tet2^MT and tet2^WT marrow was confirmed by CD45.1/CD45.2 cytometry prior to treatment. […] Ratio of CD45.2 vs. CD45.1 was determined at different time points (FIGS. 4D&E). […]

[2] = system: SIGM5; test: Growth suppression / cell survival dose response in leukemia cell lines; assay type: cell-based; details: Homo sapiens, SIG-M5; SIGM5, least TET2 expression
Text: (§1) FIGS. 3A-3G provide graphs showing the In-vitro efficacy of TETi in the elimination of TET2MTcells. A. Leukemia cell lines express different level of TET2. B. Ratio of TET2 expression vs. Lamin C. The dose response curves of cell survival with different concentration of TETi76 D. LD50 plotted against the relative expression of TET2 and C. E. Colony forming abilities of K562 TET2^+/+ and TET2^−/− cells in the presence and absence of TETi76. Data is representative of 3 independent experiment performed separately. F. Colony forming abilities of two independent normal bone marrow cells (NBM) and SIGM5 cells in MethoCult in the presence and absence of TETi76. Data is the summary of three independent experiments performed separately. G. Bone marrow from Tet2^+/+, Tet2^+/− and Tet2^−/− mice were harvested and cultured in MethoCult in the presence or absence of TETi76.
(§2) Efficacy and specificity of TETi. We used established tet2^+/− vs. tet2^−/− mouse models as well as several human myeloid cell lines selected to harbor TET2^MT or to express low level of TET2 to determine the specificity, establish the read out and provide proof of concept for the proposed strategy. […] The IC50 of different cells against TETi76 is inversely correlated with TET-activity (FIG. 3).

[3] = system: MOLM13; test: as above; assay type: cell-based; details: Homo sapiens, MOLM-13; MOLM13, least TET2 expression
Text: as §1, §2

[4] = system: K562; test: as above; assay type: cell-based, human; details: K562, high TET2 expressing
Text: as §1, §2

[5] = system: HEL01; test: as above; assay type: cell-based, human; details: HEL01, high TET2 expressing
Text: as §1, §2

[6] = system: K562 TET2^KO cells; test: Colony forming assay in TET2 knock-out K562 cells; assay type: cell-based, human; details: K562 TET2^KO vs K562
Text: as §1, §2

[7] = system: tet2^MT clones; test: In vivo mixed bone marrow transplant, CD45.2 vs CD45.1 ratio; design: species or system mice; details: 80 mg/kg 5 days/week, irradiated CD45.1 recipients transplanted with mixed marrow
Method: FIGS. 4A-4E provide graphs and images showing the In-vivo efficacy of TETi in the elimination of cells with TET2^MT. […] Tet^mt bone marrow cells were mixed in the ratio of 1:2 with tet2^+/+ bone marrow cells isolated from Pep (CD45.1). The mixed bone marrow cells were treated either with DMSO or with TETi76 in MethoCult™. Cells were isolated and ratio of CD45.1 (Pep, tet2^+/+) and CD45.2 (tet2mt) was determined by flow using antibodies against CD45.1 and CD45.2. B. Tet2^+/− bone marrow cells were mixed in the ratio of 1:2 with Tet2^+/+ in MethoCult with the treatment of DMSO or TETi76. Ratio of Tet2^+/− vs Tet2^+/+ was measured by flow. C. […] Ratio of Tet2^+/− vs Tet2^+/+ was measured by flow. […] CD45.1+ vs. CD45.2+ was serially assessed.
To further validate the feasibility of our proposed strategy as a therapeutic principle, we used mixing experiments in which tet2^MT/tet2^WT were co-cultured at fixed ratios to mimic evolving tet2MT clone and the differences in isoform fractions served as read out. […] As expected, tet2^MT grew at faster rate in the controls as reflected in the increased ratio >1:1 of tet2^MT/tet2^WT, while TETi treatment selectively eliminated the tet2^MT cells as determined using CD45.1/CD45.2 surface markers on tet2^WT and tet2^MT bone marrow, respectively (FIGS. 4A&B). […] First we determined MTD utilizing a dose escalation in a group of 3 mice each. […]

[8] = system: MOLM and K562 TET2 knockdown cells; test: Culture of TET2 knockdown cell lines; assay type: cell-based; details: preliminary experiments
[9] = system: Gulo^−/−Tet2^+/− cells; test: hmC level in Gulo^−/−Tet2^+/− cells; assay type: cell-based
Text: We optimized assays to assess the impact of mutation or haploinsufficiency on dioxygenase activity in our laboratory. We deployed 2 independent methods for the quantification of hmC/mC. First, a semi quantitative method of dot blot and second a highly sensitive 2D-UPLCMS method. These methods were used to determine the relative activity of TET2 enzymatic function. We can quantify TET2 dioxygenase activity products in cell lines and patient's bone marrow cells with various types of TET2^MT (FIG. 3E) in genetically modified (retrovirally-transduced TET2 shRNA) K562 and MOLM13 cells and bone marrow from Tet2^−/− and Tet^+/− mice. As expected, haploinsufficiency of TET2 leads to gene-dose dependent decreases in 5hmC and further oxidized products.

Structure (SMILES) | mortality at MTD [1] | MTD at 3 months ([1]; dose escalation, groups of 3 mice, 5 days a week, weekly dose increments) [mg/kg] | IC50 [2] [µM] | IC50 [3] [µM] | sensitivity to treatment [4] | sensitivity to treatment [5] | colony forming, effect of TET2 knock-out on sensitivity [6] | growth of tet2^MT clones in vivo (ratio CD45.2 vs CD45.1) [7] | inhibitory effects compared to cells with scrambled shRNA [8] | levels of TET2 product hmC [9]
C=C(CC(O)C(=O)OCC)C(=O)OCC (centres unmarked) [TETi76] | no mortality | 168 | 11.2 | 9.6 | lowest sensitivity | lowest sensitivity | sensitized these cells to TETi76 | most pronounced against tet2^−/− compared to tet2^+/− genotype; also recorded: prevents clonal expansion Tet2MT cells in vivo | – | –
COC(=O)CCC(=O)C(=O)OC [DMKG] | – | – | – | – | – | – | – | – | differential and dose-dependent inhibitory effects | –
O=C1O[C@H]([C@@H](O)CO)C(O)=C1O [vitC, vitamin C] | – | – | – | – | – | – | – | – | differential and dose-dependent inhibitory effects | increases levels of the TET2 product hmC
